Measured values from US20180369203A1, “METHODS OF TREATING CANCER BY ADMINISTERING A MEK INHIBITOR IN COMBINATION WITH A PROTEASOME INHIBITOR” (The Jackson Laboratory, priority 2015, published 2018).
Read-outs that look alike come from different tables or passages of the source. Peptide text beside a SMILES is read from it. * marks the point of attachment. Cbz = O=C(OCc1ccccc1)*

Tests used:
[1] = tested on: V5-TOR1AIP2, V5-RPL3, V5-RPL15; assay: Levels and ubiquitination of V5-tagged proteins in HEK293T cells; assay type: cell-based; conditions: 500 nM MG132 co-treated with 20 nM AZD6244, 8 hr
[2] = tested on: c-MYC, RPL15, RPL3; assay: Endogenous c-MYC, RPL15 and RPL3 proteins in A2058 cells; assay type: cell-based, human; conditions: 20 nM AZD6244 co-treated with 500 nM MG132
Method: (A) GFP and GFP-GR plasmids were co-transfected into HEK293T cells followed by treatments with 20 nM AZD6244, 20 μM U0126, or 200 nM 17-DMAG for 4 hr. (B) GFP-GR plasmids were co-transfected into HEK293T cells with HA-Ub-K48 plasmids, which encode a mutant ubiquitin that can be conjugated to protein substrates only via lysine 48. Following treatments with 20 nM AZD6244 or 200 nM 17-DMAG for 4 hr, GFP-GR proteins were precipitated and ubiquitination was detected using anti-HA antibodies. (C) Denatured firefly luciferases were incubated with lysates of A2058 cells treated with DMSO or 20 nM AZD6244 (mean±SD, n=4, ANOVA). (D) A2058 cells were treated with 20 nM AZD6244, and ubiquitinated proteins were detected in both detergent-soluble and -insoluble fractions using Lys48-specific ubiquitin antibodies. (E) A2058 cells stably expressing LacZ or HSF1^S326D were treated with 20 nM AZD6244 for 8 hr. (F) C57BL/6J mice were i.p. injected with DMSO or AZD6244 three times a week for 2 weeks. S: spleen; K: kidney; L: liver. (G) Experimental procedures of MS-based quantitation of ubiquitinated peptides, two technical replicates per treatment. […] (Q) Endogenous RPL15 and RPL3 proteins were detected in A2058 cells treated with 20 nM AZD6244 alone or co-treated with 500 nM MG132. (R) Endogenous RPL15 and RPL3 proteins were detected in A2058 cells stably expressing LacZ or HSF1^S326D with AZD6244 treatment. […]

[3] = tested on: HSF1; assay: Dual HSF1 reporter assay (HSE-SEAP / CMV-GLuc) in HEK293T cells; assay type: cell-based; conditions: 20 μM U0126, 20 nM AZD6244, 1 μM FR180204 or 100 nM Sch772984
Method: (A) NIH3T3 cells were treated with HS at 43° C. for 30 min, 10 μM tubastatin A for 5 hr, 40 μM VER155008 for 1 hr, 500 nM MG132 for 1 hr, 200 nM 17-DMAG for 1 hr, and 2.5 mM azetidine for 15 min (B) The dual ELK1 reporter system, comprising a serum response element (SRE)-driven secreted embryonic alkaline phosphatase (SEAP) plasmid and a CMV-driven Gaussia luciferase (GLuc) plasmid, was transfected into HEK293T cells. After 24 hr, cells were treatments as in (A) and recovered overnight before measuring reporter activities (mean±SD, n=6, ANOVA). (C and D) NIH3T3 cells were treated with 20 μM U0126 or 20 nM AZD6244 for 3 hr followed by HS and 4-hr recovery. mRNA levels were quantitated by qRT-PCR (mean±SD, n=3, Student's t-test). (E) Immediately after HS, nuclear proteins of NIH3T3 cells treated as in (C) were extracted to measure HSF1-DNA binding by an ELISA-based assay (mean±SD, n=3, ANOVA). (F) HEK293T cells were transfected with dual HSF1 reporter plasmids, a heat-shock element (HSE)-driven SEAP plasmid and a CMV-GLuc plasmid. […] (G) HEK293T cells were treated with different inhibitors overnight. […] After 24 hr, cells were heat shocked at 43° C. for 30 min followed by overnight recovery (mean±SD, n=3, ANOVA). […]
FIGS. 8A-H illustrate that MEK and ERK inversely regulate the PSR. […] Cell viability was measured by a Guava EasyCyte™ flow cytometer using Guava ViaCount™ reagents (mean±SD, n=5, Student's t test). […] Levels of ERK1 and ERK2 mRNAs were quantitated in HEK293T cells transfected with ERK1-targeting siRNAs by qRT-PCR (mean±SD, n=3, ANOVA). […] Levels of ERK2 and ERK1 mRNAs were quantitated in HEK293T cells transfected with ERK2-targeting siRNAs by qRT-PCR (mean±SD, n=3, ANOVA).
Plasmids were transfected with TurboFect transfection reagent (Thermo Scientific). SEAP and luciferase activities in culture supernatants were quantitated using a Ziva® Ultra SEAP Plus Detection Kit (Jaden BioScience) and a Gaussia Luciferase Glow Assay Kit (Thermo Scientific), respectively. Luminescence signals were measured by a VICTORS Multilabel plate reader (PerkinElmer).

[4] = tested on: Hsp genes; assay: qRT-PCR of heat-shock-induced Hsp mRNA in NIH3T3 cells; assay type: cell-based, mouse; conditions: 20 μM U0126 or 20 nM AZD6244 for 3 hr, then HS and 4-hr recovery
Method: (A) NIH3T3 cells were treated with HS at 43° C. for 30 min, 10 μM tubastatin A for 5 hr, 40 μM VER155008 for 1 hr, 500 nM MG132 for 1 hr, 200 nM 17-DMAG for 1 hr, and 2.5 mM azetidine for 15 min (B) The dual ELK1 reporter system, comprising a serum response element (SRE)-driven secreted embryonic alkaline phosphatase (SEAP) plasmid and a CMV-driven Gaussia luciferase (GLuc) plasmid, was transfected into HEK293T cells. After 24 hr, cells were treatments as in (A) and recovered overnight before measuring reporter activities (mean±SD, n=6, ANOVA). (C and D) NIH3T3 cells were treated with 20 μM U0126 or 20 nM AZD6244 for 3 hr followed by HS and 4-hr recovery. mRNA levels were quantitated by qRT-PCR (mean±SD, n=3, Student's t-test). (E) Immediately after HS, nuclear proteins of NIH3T3 cells treated as in (C) were extracted to measure HSF1-DNA binding by an ELISA-based assay (mean±SD, n=3, ANOVA). […]
Total RNAs were extracted using RNA STAT-60 reagent (Tel-Test, Inc.), and RNAs were used for reverse transcription using a Verso cDNA Synthesis kit (Thermo Fisher Scientific). Equal amounts of cDNA were used for quantitative PCR reaction using a DyNAmo SYBR Green qPCR kit (Thermo Fisher Scientific). Signals were detected by an ABI 7500 Real-Time PCR System (Applied Biosystems). […]

[5] = tested on: HSF1; assay: ELISA-based HSF1-DNA binding assay, NIH3T3 nuclear proteins; assay type: cell-based, mouse; conditions: NIH3T3, immediately after HS; 20 μM U0126 or 20 nM AZD6244 for 3 hr
Method: (A) NIH3T3 cells were treated with HS at 43° C. for 30 min, 10 μM tubastatin A for 5 hr, 40 μM VER155008 for 1 hr, 500 nM MG132 for 1 hr, 200 nM 17-DMAG for 1 hr, and 2.5 mM azetidine for 15 min (B) The dual ELK1 reporter system, comprising a serum response element (SRE)-driven secreted embryonic alkaline phosphatase (SEAP) plasmid and a CMV-driven Gaussia luciferase (GLuc) plasmid, was transfected into HEK293T cells. After 24 hr, cells were treatments as in (A) and recovered overnight before measuring reporter activities (mean±SD, n=6, ANOVA). (C and D) NIH3T3 cells were treated with 20 μM U0126 or 20 nM AZD6244 for 3 hr followed by HS and 4-hr recovery. mRNA levels were quantitated by qRT-PCR (mean±SD, n=3, Student's t-test). (E) Immediately after HS, nuclear proteins of NIH3T3 cells treated as in (C) were extracted to measure HSF1-DNA binding by an ELISA-based assay (mean±SD, n=3, ANOVA). (F) HEK293T cells were transfected with dual HSF1 reporter plasmids, a heat-shock element (HSE)-driven SEAP plasmid and a CMV-GLuc plasmid. […] (G) HEK293T cells were treated with different inhibitors overnight. […] After 24 hr, cells were heat shocked at 43° C. for 30 min followed by overnight recovery (mean±SD, n=3, ANOVA). (L)-(O) HEK293T cells were transfected with siRNAs for 48 hr followed by transfection with dual HSF1 reporter plasmids for 24 hr before HS (mean±SD, n=6, ANOVA). […]

[6] = molecular target: MEK1 (Homo sapiens, UniProt Q02750); conditions: 100 ng GST-MEK1, 400 ng His-HSF1, RT
Method: (§1) Co-expressed GFP proteins served as internal controls. […] See also FIG. 10.
(§2) Samples were boiled for 5 min to stop reactions.

[7] = tested on: ERK complexes precipitated from HEK293T cells; assay: In vitro kinase assay with immunoprecipitated ERK complexes; assay type: biochemical
Method: as §1, §2

[8] = tested on: HSF1 Ser326; assay: HSF1 Ser326 phosphorylation by immunoblotting in HEK293T cells; assay type: cell-based; conditions: overnight, 20 μM U0126, 20 nM AZD6244, 1 μM FR180204 or 100 nM Sch772984
Method: This figure is related to FIG. 3. (A) Validation of phospho-HSF1 Ser326 antibodies. […] (B) MEK blockade impairs HSF1 Ser326 phosphorylation. […] (D-E) S326A mutation impairs HSF1 nuclear translocation. […] (F) Acute MEK depletion diminishes HSF1 proteins. […] HSF1 proteins were detected by immunoblotting. (G) ERK-mediated HSF1 Ser307 phosphorylation depends on MEK. […] Levels of phosphor-HSF1 Ser307 were measured by immunoblotting. (H) HSF1 Ser326 phosphorylation inhibits Ser307 phosphorylation.

[9] = tested on: HSF1 Ser326; conditions: NIH3T3; 20 μM U0126 for 3 hrs, then heat shock 43° C. 30 mins
Method: NIH3T3 cells were treated with 20 μM U0126 for 3 hrs followed by heat shock at 43° C. for 30 mins HSF1 Ser326 phosphorylation was detected by immunoblotting.
Whole-cell protein extracts were prepared in cold cell-lysis buffer (100 mM NaCl, 30 mM Tris-HCl pH 7.6, 1% Triton X-100, 30 mM NaF, 1 mM EDTA, 1 mM sodium orthovanadate, and Halt™ protease inhibitor cocktail from Thermo Scientific). Proteins were separated on SDS-PAGE gels and transferred to nitrocellulose membranes. Primary antibodies were applied in wash buffer overnight at 4° C. Peroxidase-conjugated secondary antibodies were applied at room temperature for 1 hr, and signals were visualized by SuperSignal West chemiluminescent substrate (Thermo Fisher Scientific), followed by exposure to films.

Sequence of MEK1 (Q02750 whole entry): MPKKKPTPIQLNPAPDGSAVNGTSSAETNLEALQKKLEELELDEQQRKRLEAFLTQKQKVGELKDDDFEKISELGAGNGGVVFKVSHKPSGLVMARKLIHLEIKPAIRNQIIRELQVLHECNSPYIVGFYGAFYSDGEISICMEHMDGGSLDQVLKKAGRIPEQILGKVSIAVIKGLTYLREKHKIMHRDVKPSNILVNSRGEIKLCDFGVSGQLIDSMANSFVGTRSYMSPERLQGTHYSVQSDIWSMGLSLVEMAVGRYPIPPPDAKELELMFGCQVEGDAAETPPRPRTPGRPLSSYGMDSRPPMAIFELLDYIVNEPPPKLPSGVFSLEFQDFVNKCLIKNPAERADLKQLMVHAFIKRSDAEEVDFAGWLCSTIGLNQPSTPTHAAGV

SMILES	V5-RPL15 depletion by AZD6244 [1]	depletions of endogenous RPL15 and RPL3 by AZD6244 [2]	transcriptional activation of HSF1 [3]	HS-induced transcription of Hsp genes [4]	DNA-binding capacity of HSF1 [5]	HSF1 Ser326 phosphorylation by recombinant MEK1 [6]	phosphorylation of recombinant ERK1 proteins by precipitated ERK complexes ([7]; 400 ng GST-ERK1)	HSF1 Ser326 phosphorylation by precipitated ERK complexes ([7]; 400 ng His-HSF1)	HSF1 Ser326 phosphorylation [8]	HSF1 Ser326 phosphorylation [9]
CC(C)C[C@@H](C=O)NC(=O)[C@H](CC(C)C)NC(=O)[C@H](CC(C)C)NC(=O)OCc1ccccc1 [MG132] (Cbz-Leu-Leu-Leu-aldehyde)	prevented	prevented								
N#CC(=C(/N)Sc1ccccc1N)/C(C#N)=C(\N)Sc1ccccc1N [U0126]			impaired	impeded	impaired	blocked	blocked	blocked	impairs	impaired
